# Assay results published in publication PMC12525728, “Safety, Pharmacokinetics, Translational and Molecular Mechanistic Insights on the Prostate Cancer Recurrence Suppressor Pseurotin A” (Molecules, 2025).
# Legend:
# [1] = Qualitative tissue distribution (biodistribution) study after IP dosing; type: in vivo, Swiss albino mice; conditions: IP 125 mg/kg, 7 min after dosing
# Protocol: Five µL of the IS ([…]) and 20 µL of 50, 40, 30, 20, 10, 8, and 4 µg/mL PsA standard solutions were combined with 15 µL freshly extracted blank mouse plasma. 300 µL of a 70% EtOAc/30% isopropanol mixture was added and vortexed for 30 s. Following centrifugation at 15,000× g for 10 min, the supernatant was transferred to a 2 mL Eppendorf tube for nitrogen evaporation. The residues were reconstituted in 25 µL HPLC-grade MeOH before being subjected to 30 s sonication followed by centrifugation at 15,000× g for 10 min. Afterwards, the entire sample was immediately injected for RP-HPLC analysis. The mouse plasma samples used in the PK study were subjected to the same extraction method, minus the addition of the PsA standard solutions. After weighing, each mouse organ was reconstituted in 500 µL PBS, then homogenized using the MISONIX Sonicator (Division of QSonica LLC, Newtown, CT, USA). Samples were centrifuged at 15,000× g for 10 min, and the supernatant was collected and transferred to a 2 mL Eppendorf. About 5 µL of IS (25 µL/mL) and 300 µL of a 70% EtOAc/30% isopropanol mixture were added to 100 µL of supernatant and vortexed for 30 s. Following centrifugation at 15,000× g for 10 min, the supernatant was transferred to a 2 mL Eppendorf tube and evaporated under N2. The remains were reconstituted in 40 µL HPLC-grade methanol before being subjected to 30 s sonication followed by centrifugation at 15,000× g for 10 min.
# For the biodistribution study, four healthy male and two healthy female Swiss albino mice were randomly selected and placed in 2 groups (n = 3/group). The mice received free access to drinking water and pelleted regular rodent chow (Cat# 7012, Envigo/Teklad, Madison, WI, USA) until the day before experimentation, after which they were fasted for 8 h and allowed only free access to drinking water. One group was IP administered 125 mg/kg PsA formulated in PBS-DMSO (925:75) + 0.2% Tween 80 at a body weight-adjusted volume not exceeding 300 µL. […] Collected samples were immediately extracted using the described method above and analyzed using HPLC.
# Swiss albino mice = assay: 90-day daily oral dosing sub-chronic toxicity study (body weight, behavior, organ weight, histology); type: in vivo; conditions: for Relative organ weight, Brain / Relative organ weight, Heart / Relative organ weight, Kidneys / Relative organ weight, Liver / Relative organ weight, Lungs / Relative organ weight, Spleen: mean ± SD
# Protocol: For the 90-day daily oral dosing sub-chronic toxicity study, twenty male and twenty female healthy 8-week-old Swiss albino mice were randomly selected and randomized to […] (n = 5/sex/group). Mice received free access to purified drinking water and high-fat diet (HFD) pelleted rodent chow (11.4% total fat, no. 7004, Envigo/Teklad, Madison, WI, USA) until the day before sacrifice, at which time they were fasted for 8 h and allowed only free access to drinking water. Daily doses of PsA (10, 40, 80 mg/kg body weight) were administered to the mice formulated in <5% DMSO (Mediatech Inc., Manassas, VA, USA) and <0.2% Tween 80 (Croda Inc., Princeton, NJ, USA) at a volume not exceeding 1% of body weight by metal oral gavage (2 mm diameter with stainless steel bite protector, 18-gauge, 3.81 cm long). […] The mice were observed weekly until the completion of the study. The body weights of the mice were measured in grams using a Scout^TM Pro (Ohaus Corp., Pine Brook, NJ, USA) on day 0, 4, 8, 11, 14, 21, 28, 35, 42, 49, 56, 63, 70, 77, 83, and 90 after initial treatment. On day 90, all mice were anesthetized using isoflurane (USP-vaporizer method, Matrix VIP-3000, Covetrus, Dublin, OH, USA, exposure of animals in an anesthesia chamber at 3% isoflurane vaporization rate. Exposure time 2 min). Mice were then euthanized by cervical dislocation according to the 2020 AVMA Guidelines on Euthanasia and dissected. Mice organs (brain, liver, kidney, heart, lungs, spleen) were excised and weighed for histopathological examination. The organs were stored in 10% neutral buffered formalin (Avantor Science Central, Allentown, PA, USA) for 24 h and then transferred to 70% ethanol (AAPER ALCOHOL, Shelbyville, KY, USA). This study was performed following the OECD guideline 408 for the testing of chemicals.
# The experimental animals’ organs were carefully excised and quickly fixed in 10% neutral buffered formalin for 24 h before being transferred to 70% ethanol. The organs were embedded in paraffin before sectioning and staining with hematoxylin and eosin (H&E). All sectioning and staining were conducted at the AML Laboratories (Jacksonville, FL, USA). The paraffin-embedded tissues were sliced into 5 µm-thick sections before being mounted on a positively charged slide. The 5 µm-thick sections were then dewaxed using xylene, rinsed using 80–95% ethanol, and rehydrated using H2O. They were subsequently stained with H&E before being dehydrated again using 80–95% ethanol to xylene.
# Results for the hematological and biochemical parameters were analyzed separately by One-way Analysis of Variance (ANOVA), followed by multiple comparisons with Dunnett’s test. All statistical analyses were performed using GraphPad Prism version 8 software (San Diego, CA, USA). Data in this study were expressed as a mean ± SD (standard deviation) and mean ± SEM (standard error of mean). A probability value of <0.05 was considered statistically significant (* p < 0.05; ** p < 0.01; and *** p < 0.001).
# [2] = female, 10mg/kg daily oral 90 days
# [3] = female, 40mg/kg daily oral 90 days
# [4] = female, 80mg/kg daily oral 90 days
# [5] = male, 10mg/kg daily oral 90 days
# [6] = male, 40mg/kg daily oral 90 days
# [7] = male, 80mg/kg daily oral 90 days
structure (smiles),measurement,setting,value
"CC/C=C\[C@H](O)[C@H](O)C1=C(C)C(=O)[C@]2(O1)C(=O)N[C@@](OC)(C(=O)c1ccccc1)[C@@H]2O [PsA, pseurotin A]",PsA HPLC peak in brain tissue (BBB crossing),[1],did not display PsA peak
same,"PsA HPLC peak in liver, kidney, heart and spleen tissue",[1],prominent PsA peak
same,PsA HPLC peak in plasma,[1],prominent PsA peak
same,"behavioral, neuromuscular and autonomic responses",Swiss albino mice; daily oral doses over 90 days,no observable effects
same,"Relative organ weight, Brain",Swiss albino mice; [2],438.5 ± 18.9
same,"Relative organ weight, Heart",Swiss albino mice; [2],197.7 ± 33.5
same,"Relative organ weight, Kidneys",Swiss albino mice; [2],475.9 ± 31.8
same,"Relative organ weight, Liver",Swiss albino mice; [2],1218 ± 31.6
same,"Relative organ weight, Lungs",Swiss albino mice; [2],211.7 ± 40.2
same,"Relative organ weight, Spleen",Swiss albino mice; [2],106.3 ± 48.4
same,"Relative organ weight, Brain",Swiss albino mice; [3],355.1 ± 25.2
same,"Relative organ weight, Heart",Swiss albino mice; [3],186.2 ± 12.3
same,"Relative organ weight, Kidneys",Swiss albino mice; [3],470.4 ± 87.8
same,"Relative organ weight, Liver",Swiss albino mice; [3],1311 ± 135.7
same,"Relative organ weight, Lungs",Swiss albino mice; [3],229.0 ± 37.1
same,"Relative organ weight, Spleen",Swiss albino mice; [3],125.1 ± 22.6
same,"Relative organ weight, Brain",Swiss albino mice; [4],376.7 ± 47.4
same,"Relative organ weight, Heart",Swiss albino mice; [4],231.1 ± 24.4
same,"Relative organ weight, Kidneys",Swiss albino mice; [4],461.9 ± 20.6
same,"Relative organ weight, Liver",Swiss albino mice; [4],1369 ± 146.3
same,"Relative organ weight, Lungs",Swiss albino mice; [4],236.9 ± 66.2
same,"Relative organ weight, Spleen",Swiss albino mice; [4],109.7 ± 20.2
same,average heart weight versus vehicle control,"Swiss albino mice; male 10 mg/kg and 40 mg/kg groups, 90 days",significant decrease
same,body weight versus vehicle control,"Swiss albino mice; male and female, 10, 40, 80 mg/kg daily oral 90 days, sixteen time points",did not show any significant changes
same,"Relative organ weight, Heart",Swiss albino mice; [5],248.1 ± 54.6
same,"Relative organ weight, Kidneys",Swiss albino mice; [5],684.7 ± 41.0
same,"Relative organ weight, Liver",Swiss albino mice; [5],1881 ± 134.3
same,"Relative organ weight, Lungs",Swiss albino mice; [5],288.8 ± 62.4
same,"Relative organ weight, Spleen",Swiss albino mice; [5],114.7 ± 21.4
same,"Relative organ weight, Brain",Swiss albino mice; [6],413.6 ± 54.5
same,"Relative organ weight, Heart",Swiss albino mice; [6],261.7 ± 25.2
same,"Relative organ weight, Kidneys",Swiss albino mice; [6],747.5 ± 92.3
same,"Relative organ weight, Liver",Swiss albino mice; [6],1869 ± 295.8
same,"Relative organ weight, Lungs",Swiss albino mice; [6],302.1 ± 23.5
same,"Relative organ weight, Spleen",Swiss albino mice; [6],118.5 ± 3.9
same,"Relative organ weight, Brain",Swiss albino mice; [7],409.2 ± 28.3
same,"Relative organ weight, Heart",Swiss albino mice; [7],320.8 ± 58.9
same,"Relative organ weight, Kidneys",Swiss albino mice; [7],673.7 ± 50.1
same,"Relative organ weight, Liver",Swiss albino mice; [7],1946 ± 272.4
same,"Relative organ weight, Lungs",Swiss albino mice; [7],209.9 ± 61.0
same,"Relative organ weight, Spleen",Swiss albino mice; [7],108.7 ± 12.1
same,"organ histology (liver, lungs, kidneys, heart, brain) versus vehicle control","Swiss albino mice; up to 80 mg/kg, 90-day dosing, H&E",no structural or morphological differences
